Measurements: patent US8211915B2, “Biphenyl compounds useful as muscarinic receptor antagonists” (Theravance, Inc., priority 2004, dated 2012)
pKi: −log10 of the molar value.

Target: T1, hM3 muscarinic receptor subtype (Homo sapiens, UniProt P20309)
T1 construct: expressed in transfected cells; crude membranes prepared in house
Assay: Radioligand binding assay ([3H]-NMS displacement)
Conditions: [3H]-NMS 1 nM, CHO cell membranes, 60 minutes at 37° C.; read-out: Ki value for the M3 muscarinic receptor subtype
Experimental: A. Membrane Preparation from Cells Expressing hM1, hM2, hM3 and hM4 Muscarinic Receptor Subtypes
CHO cell lines stably expressing cloned human hM1, hM2, hM3 and hM4 muscarinic receptor subtypes, respectively, were grown to near confluency in medium consisting of HAM's F-12 supplemented with 10% FBS and 250 μg/mL Geneticin. The cells were grown in a 5% CO2, 37° C. incubator and lifted with 2 mM EDTA in dPBS. Cells were collected by 5 minute centrifugation at 650×g, and cell pellets were either stored frozen at −80° C. or membranes were prepared immediately. For membrane preparation, cell pellets were resuspended in lysis buffer and homogenized with a Polytron PT-2100 tissue disrupter (Kinematica AG; 20 seconds×2 bursts). […] The protein concentration of the membrane suspension was determined by the method described in Lowry, O. et al., […] 193:265 (1951). […]
Radioligand binding assays were performed in 96-well microtiter plates in a total assay volume of 100 μL. […] Filter plates were rinsed three times with wash buffer (10 mM HEPES) to remove unbound radioactivity. […] The plates were then counted in a PerkinElmer Topcount liquid scintillation counter (PerkinElmer Inc., Wellesley, Mass.). Binding data were analyzed by nonlinear regression analysis with the GraphPad Prism Software package (GraphPad Software, Inc., San Diego, Calif.) using the one-site competition model. […]

T1 sequence (P20309 whole entry): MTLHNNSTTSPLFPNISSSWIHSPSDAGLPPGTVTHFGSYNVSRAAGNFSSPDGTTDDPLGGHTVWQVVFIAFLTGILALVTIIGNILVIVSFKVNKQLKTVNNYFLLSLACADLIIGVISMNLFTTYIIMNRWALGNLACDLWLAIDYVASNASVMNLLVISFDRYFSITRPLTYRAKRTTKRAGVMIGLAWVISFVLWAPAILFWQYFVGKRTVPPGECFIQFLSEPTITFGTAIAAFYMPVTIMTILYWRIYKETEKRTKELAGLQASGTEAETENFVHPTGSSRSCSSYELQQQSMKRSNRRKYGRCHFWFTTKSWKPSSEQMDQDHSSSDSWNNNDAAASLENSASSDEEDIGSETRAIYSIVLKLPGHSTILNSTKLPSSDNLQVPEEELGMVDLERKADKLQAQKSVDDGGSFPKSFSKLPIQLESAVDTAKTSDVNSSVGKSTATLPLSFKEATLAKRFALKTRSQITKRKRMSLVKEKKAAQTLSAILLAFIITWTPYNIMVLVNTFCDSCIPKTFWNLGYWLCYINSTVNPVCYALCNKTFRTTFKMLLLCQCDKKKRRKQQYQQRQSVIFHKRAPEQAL

NC(=O)C1CCN(Cc2ccc(NC(=O)CCN3CCC(OC(=O)Nc4ccccc4-c4ccccc4)CC3)cc2)CC1 [Example 1, Biphenyl-2-ylcarbamic Acid 1-{2-[4-(4-Carbamoylpiperidin-1-ylmethyl)phenylcarbamoyl]ethyl}piperidin-4-yl Ester]
pKi: > 8.30
